Where a chain is given by its changes, count along the chain named. Where two headings read alike, the source gives them in different places.
Tests used:
Assay type in all cases: cell-based
murine Mincle = target: T1, murine Mincle (Mus musculus, UniProt Q9R0Q8); assay: Mincle activation assay, murine Mincle-FcRγ GFP reporter cell line with plate-coated lipids
T1 construct: expressed in transfected cells; host or cells: 2B4-NFAT-GFP cells
T1 sequence (Q9R0Q8 1-214): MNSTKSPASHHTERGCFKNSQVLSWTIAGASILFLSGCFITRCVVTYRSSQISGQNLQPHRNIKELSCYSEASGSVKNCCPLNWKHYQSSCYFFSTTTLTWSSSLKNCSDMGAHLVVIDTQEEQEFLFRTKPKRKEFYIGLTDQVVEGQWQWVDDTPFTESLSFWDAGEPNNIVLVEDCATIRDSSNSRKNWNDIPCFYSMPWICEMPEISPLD
T1 sequence (P20491 19-86 partner): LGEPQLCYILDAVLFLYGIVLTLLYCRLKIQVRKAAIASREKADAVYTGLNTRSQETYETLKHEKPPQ

human Mincle = target: T2, human Mincle (Homo sapiens, UniProt Q9ULY5); assay: Mincle activation assay, human Mincle-FcRγ GFP reporter cell line with plate-coated lipids; details: FIG. 3D
T2 construct: expressed in transfected cells; host or cells: 2B4-NFAT-GFP cells
T2 sequence (Q9ULY5 1-219): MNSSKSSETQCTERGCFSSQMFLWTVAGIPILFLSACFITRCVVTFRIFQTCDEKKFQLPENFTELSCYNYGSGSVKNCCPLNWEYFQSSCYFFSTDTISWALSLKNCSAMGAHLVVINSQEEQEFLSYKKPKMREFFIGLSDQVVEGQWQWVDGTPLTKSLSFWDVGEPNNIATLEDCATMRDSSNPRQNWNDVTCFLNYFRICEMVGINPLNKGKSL
T2 sequence (P30273 19-86 partner): T1 sequence (P20491 19-86 partner) with V13I, A38T, R40Y, A43S, A45G, N51S, S54N

FcRγ = assay: Negative control reporter cell line expressing FcRγ only; details: FIG. 3D

| activation of human Mincle reporter cell line (human Mincle; comparison of murine and human reporter lines) | relative sensitivity of murine Mincle to diPT versus TDM (murine Mincle; FIG. 3D) | activation of murine Mincle reporter cell line (murine Mincle; comparison of murine and human reporter lines, FIG. 3D) | amount of coated lipid at which reporter cells respond (GFP expression) (murine Mincle; murine Mincle-FcRγ reporter cell line, plate-coated lipid, FIG. 3C) [ng] | Molecule | amount of coated lipid at which reporter cells respond (GFP expression) (murine Mincle) [ng] | relative sensitivity of human Mincle to diPT versus TDM (human Mincle) | activation of negative control cell line expressing FcRγ only (FcRγ) |
| --- | --- | --- | --- | --- | --- | --- | --- |
|  |  |  |  | 6,6′-diphosphatidyltrehalose [natural diPT] | 5 |  |  |
| activation present at nanogram levels | the opposite is true | activation present at nanogram levels | 20 | CCCCCCCCCCCCCCCC(=O)OC[C@H](COP(=O)(O)OCC1OC(OC2OC(COP(=O)(O)OC[C@@H](COC(=O)CCCCCCCCCCCCCCC)OC(=O)CCCCCCC[C@H]3C[C@H]3CCCCCC)C(O)C(O)C2O)C(O)C(O)C1O)OC(=O)CCCCCCC[C@H]1C[C@H]1CCCCCC (some centres unmarked) [synthetic diPT, 6,6′-diphosphatidyltrehalose] |  | marginally more sensitive to diPT than to TDM | failed to activate |
|  |  |  |  | trehalose dimycolate [TDM, reference compound] | 5 |  |  |

Reference: patent US12503482B2, “Compositions and methods for trehalose phospholipids” (The Brigham and Women's Hospital, Inc., priority 2019, dated 2025)
